“Also recorded” adds a separate entry of the source.
Assays:
human and mouse FPRs = settings: control ligand, 10 μM; cited from earlier work
Experimental: Cell population responses of transfected HEK293T cells and U87 cells were recorded using a Flexstation III microplate reader (Molecular Devices). Briefly, cells were incubated with 2 μM Calbryte 520 AM (AAC Bioquest) for 2 h at room temperature in C1 assay buffer with 5 mM glucose (Carl Roth). Before each experiment, cells were rinsed three times with C1. Experiments with HEK293T cells were conducted 48 h after transfection, while experiments with U87 cells were performed 24 h after seeding.

FPR1 and FPR2 = settings: cited from earlier work
U87 cells [1] = test: Chemotaxis assay, U87 cells; assay type: cell-based, human; settings: 10 nM; n = 3, N = 1
Experimental: Cell migration assays were performed and analyzed with an IncuCyte S3 Life Cell Imaging System (EssenBio Science). […] Approximately, 1000 cells were placed into the top chamber of each well of a 96-well ClearView Plate (EssenBioscience). Chemoattractants were mixed in 200 μl medium and then placed in the corresponding bottom chambers. Image acquisition was performed hourly for 24 h on both sides of a membrane separating the top and bottom chambers. Subsequent analysis was performed using the IncuCyte S3 software.

U87 cells [2] = test: Ca2+ imaging cross-desensitization, U87 cells; assay type: cell-based, human; settings: n = 1, N = 3
Source text: Left: Representative image of gel electrophoresis after reverse transcription polymerase chain reaction with primers for all hFPRs. Right: Quantification of complementary DNA for all FPRs obtained through reverse transcription quantitative polymerase chain reaction, n = 5, N = 2. One-way ANOVA test, Dunnett post hoc test. B, left: representative immunocytochemistry staining of U87 cells and transfected HEK293T cells with FPR subtype–specific antibodies (red) and nuclei staining (blue). For visibility, brightness and contrast were adjusted for U87 cells and HEK293T cells differently; for absolute intensity comparison pictures with equal settings for exposure time, brightness and contrast pictures are shown in Figure S5. Scale bars indicate 100 μm. Right: Quantification of the mean FPR staining in U87 cells (green) in comparison to FPR-transfected HEK293T cells (red). Analysis was performed on images acquired with the same settings. n = 2, N = 5 for U87 cells and n = 2, N = 2 for HEK293T cells. One-way ANOVA test, Tukey post hoc test. […] One-way ANOVA test, Dunnett post hoc test. […] Representative […] traces (left) and mean Ca^2+ peak responses (right) to a secondary Aβ17-40 stimulus after pre-application of SP4 or SP6 as a first stimulus, n = 1, N = 3; t test. […] One-way ANOVA test, Tukey post hoc test. All Error bars, S.D. ∗p ≤ 0.05, ∗∗p ≤ 0.01, ∗∗∗p ≤ 0.001; ns, no significance. […]

U87 cells [3] = test: Ca2+ imaging, U87 cells; settings: for Ca2+ response of U87 cells to receptor subtype-specific activator: 10 nM, n = 3, N = 3
Experimental: Peptides in HBSS or Tris–NaCl were dissolved in an ultrasonic bath as described above. […] The Aβ17-40 peptide used throughout the main text was purchased from Anaspec/MoBiTec and validated with Aβ17-40 peptides from Sigma-Aldrich and Synpeptide. Aβ11-40 was obtained from Peptides&Elephants. […] Tert-Boc-FLFL (tBoc2) was purchased from Bachem and dissolved in DMSO at 30 mM. f-MLFYFS (Psy-SP6) and f-MAMKKL (Sal-SP4) were obtained from VCPBIO and dissolved at 10 mM in DMSO (Psy-SP6) or at 1 mM in C1 (SP4), respectively. WKWMVm-NH2 and WKWMVm-CHO were purchased from Proteogenix and VCPBIO, respectively, and dissolved as 1 mM stock solutions in C1. fMLF was purchased from Sigma-Aldrich and also dissolved at 1 mM in C1. All peptides were thawed at room temperature approximately 1 h before each functional experiment, as this time was needed to prepare the compound plates for each measurement.
U87 MG cells (CLS) were cultured in Minimum Essential medium (Biowest) supplemented with 10% (v/v) heat-inactivated FCS (Pan Biotech), 1 unit/ml penicillin-streptomycin (Biowest), 2 mM L-glutamine (Biowest), and 1 unit/ml non-essential amino acids (Biowest) until 50 to 60% confluence. For calcium imaging and immunostaining, on average 2500 cells were seeded in each well of PDL-coated (10 μg/ml in PBS, Sigma) black optical 96-well μCLEAR-plates (Greiner Bio-One).
(§1) Cell population responses of transfected HEK293T cells and U87 cells were recorded using a Flexstation III microplate reader (Molecular Devices). Briefly, cells were incubated with 2 μM Calbryte 520 AM (AAC Bioquest) for 2 h at room temperature in C1 assay buffer with 5 mM glucose (Carl Roth). Before each experiment, cells were rinsed three times with C1. Experiments with HEK293T cells were conducted 48 h after transfection, while experiments with U87 cells were performed 24 h after seeding. Acquisition of baseline fluorescence was performed for 25 s before ligand application, and cell population response was measured for 125 s after application.

hFPR3 = test: Ca2+ imaging, HEK293T transiently transfected with hFPR3; settings: for activation of hFPR3: 10 nM, n = 1, N = 3 (Fig. S6C)
Experimental: (§2) All peptides were thawed at room temperature approximately 1 h before each functional experiment, as this time was needed to prepare the compound plates for each measurement.
(§3) HEK293T cells (ATCC) were cultured in Dulbecco’s Modified Eagle’s medium (DMEM, Biowest) supplemented with 10% (v/v) heat-inactivated fetal calf serum (FCS, Pan Biotech), 1 unit/ml penicillin-streptomycin (Biowest), and 2 mM L-glutamine (Biowest) until 80% confluence. For transfection, approximately 2000 cells were seeded in each well of poly-D-lysine–coated (PDL) (10 μg/ml in PBS, Sigma) black optical 96-well μCLEAR-plates (Greiner Bio-One). Cells were transfected after 24 h using jetPEI (Polyplus-transfection SA) with 0.125 μg of DNA plasmids encoding the respective receptors and equal amounts of a plasmid encoding the G protein subunit Gα16 since this subunit is needed to trigger FPR-dependent calcium signals in HEK293 cells ([50], [70]). The medium of transfected cells was changed 24 h after transfection. For mock transfections, the proportion of the FPR-containing plasmids were substituted by an empty pcDNA3.1 vector.
as §1

hFPR1 = test: Ca2+ imaging, HEK293T transiently transfected with hFPR1; assay type: cell-based, human; settings: 10 μM tBoc2 co-applied with 5 μM Aβ17-40 (Fig. S6B)
hFPR2 = test: Ca2+ imaging, HEK293T transiently transfected with hFPR2; assay type: cell-based, human; settings: 10 μM tBoc2 co-applied with 5 μM Aβ17-40 (Fig. S6B)
Experimental: as §2, §3, §1

APP/PS1 mice = settings: cited from earlier work
Source text: The activation of PRRs by Aβ has become a recent focus in AD research because they have a special ability to potently trigger the reactive state ([14], [25]). Among these PRRs, FPRs are one of the promising targets for AD research ([12]). They belong to a small gene family of G protein–coupled receptors with three members in humans and seven in mice ([26]). FPRs are primarily expressed in the innate and adaptive immune system, where they contribute to the detection and elimination of bacterial pathogens ([27], [28], [29], [30]). However, they are also expressed in a number of cell types in the ... || In summary, our study provides a systematic overview over the capability of different mouse and human FPRs to interact with Aβ in different buffer systems. To our knowledge, we are the first to report an activation of hFPR3 by Aβ and the first to identify N-abridged Aβ fragments as activators of FPRs.

FPR1 = settings: cited from earlier work
Source text: In summary, our study provides a systematic overview over the capability of different mouse and human FPRs to interact with Aβ in different buffer systems. To our knowledge, we are the first to report an activation of hFPR3 by Aβ and the first to identify N-abridged Aβ fragments as activators of FPRs.

Row | Compound | activation of human and mouse FPRs (human and mouse FPRs) | migration of U87 cells towards receptor subtype-specific activator (U87 cells [1]) | effect of pre-application on U87 Ca2+ response to secondary Aβ17-40 stimulus (U87 cells [2]) | Ca2+ response of U87 cells to receptor subtype-specific activator (U87 cells [3]) | activation of hFPR3 (hFPR3) | other results
1 | WKWMVm-CHO | potent activators of all three human and mouse FPRs |  |  |  |  | 
2 | C[S+](C)[O-] [DMSO, dimethyl sulfoxide] |  |  |  |  |  | agonism at FPR1 and FPR2 (FPR1 and FPR2): agonist for FPR1 and FPR2
3 | WKWMVm-NH2 | potent activators of all three human and mouse FPRs |  |  |  |  | 
4 | f-MLFYFS [SP6, reference compound] |  | migrate towards the hFPR1-stimulus SP6; also recorded: only migrated towards the FPR1-specific SP6 | abolished by the FPR1 activator SP6; also recorded: absent after pre-application of the FPR1-specific agonist SP6 | U87 cells respond to the potent hFPR1 activator SP6; also recorded: only responded to the hFPR1-specific SP6 stimulus with a calcium signal | would not activate hFPR3 | 
5 | f-MAMKKL [SP4, reference compound] |  | do not respond to the hFPR2 agonist SP4; also recorded: not towards the FPR2-specific SP4 | not influenced by pre-application of the FPR2-specific agonist SP4 | not to the hFPR2-specific SP4 stimulus | would not activate hFPR3 | 
6 | Tert-Boc-FLFL [tBoc2, reference compound] |  |  |  |  |  | antagonism at FPR1 (hFPR1): competitive antagonist of FPR1 and FPR2; antagonism at FPR2 (hFPR2): competitive antagonist of FPR1 and FPR2; effect on microglia reactivity, neuronal pathology and cognition (APP/PS1 mice): reduced microglia reactivity, decreased neuronal pathology, and improved cognitive performance; binding preference (FPR1): preferentially binds to FPR1; inhibition of U87 Ca2+ response to Aβ11-40 / Aβ17-40 (U87 cells [3]; 10 μM tBoc2 vs 5 μM Aβ11-40 or Aβ17-40, n = 3, N = 1): completely abolished the responses; antagonism at FPR3 (hFPR3; 10 μM tBoc2 co-applied with 5 μM Aβ17-40, n = 1, N = 2): does not inhibit FPR3

From PMC9694488, “Amyloid beta and its naturally occurring N-terminal variants are potent activators of human and mouse formyl peptide receptor 1” (The Journal of Biological Chemistry, 2022)
